Source: US7329657B2, “Indazolyl-substituted pyrroline compounds as kinase inhibitors” (Ortho-McNeil Pharmaceutical, Inc., priority 2000, dated 2008)

Tests used:
Type in all cases: biochemical
PKC γ = PKC γ (Homo sapiens, UniProt P05129); experiment: Protein Kinase C Histone-Based Assay, γ isoform; settings: histone III substrate, 30 μM ATP, 10 min at 30° C.; read-out: PKC Activity (IC50 μM, Histone Based Assay) Gamma
Experimental: (§1) Compounds were evaluated for PKC selectivity using histone III as the substrate. […] The reaction was incubated for 10 min at 30° C. Reactions were terminated by TCA precipitation and spotting on Whatman P81 filters. Filters were washed in 75 mM phosphoric acid and the radioactivity quantified by liquid scintillation counting.

PKC β-II = PKC β-II (Homo sapiens, UniProt P05771); experiment: Protein Kinase C Histone-Based Assay, β-II isoform; settings: histone III substrate, 30 μM ATP, 10 min at 30° C.; read-out: PKC Activity (IC50 μM, Histone Based Assay) Beta II
PKC β-II, sequence (P05771 1-673 isoform P05771-2): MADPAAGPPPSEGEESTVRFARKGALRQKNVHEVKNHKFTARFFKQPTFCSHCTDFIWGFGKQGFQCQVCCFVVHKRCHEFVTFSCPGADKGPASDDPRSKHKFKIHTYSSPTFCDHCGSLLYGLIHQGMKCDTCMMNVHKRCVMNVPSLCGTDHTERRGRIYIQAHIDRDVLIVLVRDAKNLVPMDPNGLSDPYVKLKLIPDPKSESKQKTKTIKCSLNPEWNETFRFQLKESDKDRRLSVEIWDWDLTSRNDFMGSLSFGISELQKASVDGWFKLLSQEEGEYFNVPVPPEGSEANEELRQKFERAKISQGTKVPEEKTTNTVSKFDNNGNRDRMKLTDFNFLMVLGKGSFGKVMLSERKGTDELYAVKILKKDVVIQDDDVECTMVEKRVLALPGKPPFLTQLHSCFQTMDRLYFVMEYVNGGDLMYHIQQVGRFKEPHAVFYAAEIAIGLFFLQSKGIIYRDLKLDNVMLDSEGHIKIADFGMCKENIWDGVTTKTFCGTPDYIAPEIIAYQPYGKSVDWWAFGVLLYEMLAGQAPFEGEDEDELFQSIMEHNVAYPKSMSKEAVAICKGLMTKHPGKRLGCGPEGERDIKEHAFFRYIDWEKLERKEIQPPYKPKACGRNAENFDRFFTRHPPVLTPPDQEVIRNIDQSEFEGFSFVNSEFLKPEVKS
Experimental: as §1

[1] = biological target: T1, recombinant rabbit GSK-3β protein (Oryctolagus cuniculus, UniProt G1T8E2); experiment: Glycogen Synthase Kinase-3 Assay; settings: PPI-2 substrate, 33P-ATP, 90 minutes at 30° C.
T1 construct: purchased New England Biolabs
T1 sequence (G1T8E2 1-432): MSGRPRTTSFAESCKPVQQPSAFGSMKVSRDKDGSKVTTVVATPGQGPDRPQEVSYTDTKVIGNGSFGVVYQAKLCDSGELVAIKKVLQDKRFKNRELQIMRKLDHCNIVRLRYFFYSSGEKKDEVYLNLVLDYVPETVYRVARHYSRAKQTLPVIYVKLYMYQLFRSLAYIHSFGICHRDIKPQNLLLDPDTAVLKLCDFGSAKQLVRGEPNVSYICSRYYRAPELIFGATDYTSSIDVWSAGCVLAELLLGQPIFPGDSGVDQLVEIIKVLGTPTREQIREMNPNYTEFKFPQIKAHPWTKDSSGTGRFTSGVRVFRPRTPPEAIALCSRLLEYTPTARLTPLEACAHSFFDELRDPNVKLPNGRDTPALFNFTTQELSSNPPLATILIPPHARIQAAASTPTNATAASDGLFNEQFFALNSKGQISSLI
Experimental: Compounds were tested for the ability to inhibit recombinant rabbit GSK-3β protein using the following protocol. The test compound was added to a reaction mixture containing Protein phosphatase inhibitor-2 (PPI-2) (Calbiochem) (45 ng), rabbit GSK-3β protein (New England Biolabs) (0.75 units) and ^33P-ATP (1 μCi) in 50 mM Tris-HCl (pH 8.0), 10 mM MgCl2, 0.1% BSA, 1 mM DTT and 100 μM Sodium Vanadate. The mixture was reacted for 90 minutes at 30° C. to allow phosphorylation of the PPI-2 protein and then the protein in the reaction was precipitated using 10% TCA. The precipitated protein was collected on filter plates (MultiScreen-DV/Millipore), which were subsequently washed. Finally, the radioactivity was quantified using a TopCount Scintillation Counter (Packard).

PKC α = PKC α (Homo sapiens, UniProt P17252); experiment: Protein Kinase C Histone-Based Assay, α isoform; settings: histone III substrate, 30 μM ATP, 10 min at 30° C.; read-out: PKC Activity (IC50 μM, Histone Based Assay) Alpha
Experimental: as §1

Row | IC50 (PKC γ) [µM] | IC50 (PKC β-II) [µM] | IC50 [1] [µM] | IC50 (PKC α) [µM] | Structure (SMILES)
1 | 0.53 | 0.016 | 0.041 | 0.94 | Cn1cc(C2=C(c3nn(CCCN4CCOCC4)c4ccccc34)C(=O)NC2=O)c2cc(Cl)ccc21 [Compound 78, 3-(5-chloro-1-methyl-1H-indol-3-yl)-4-[1-[3-(4-morpholinyl)propyl]-1H-indazol-3-yl]-1H-pyrrole-2,5-dione]
2 | 0.074 | 0.007 | 0.014 | 0.065 | CN(CCO)CCCn1nc(C2=C(c3cn(C)c4ccc(Cl)cc34)C(=O)NC2=O)c2ccccc21 [Compound 79, 3-(5-chloro-1-methyl-1H-indol-3-yl)-4-[1-[3-[(2-hydroxyethyl)methylamino]propyl]-1H-indazol-3-yl]-1H-pyrrole-2,5-dione]
3 | 0.512 | 0.018 | 0.051 | 0.328 | CNCCCn1nc(C2=C(c3cn(C)c4ccc(Cl)cc34)C(=O)NC2=O)c2ccccc21 [Compound 80, 3-(5-chloro-1-methyl-1H-indol-3-yl)-4-[1-[3-(methylamino)propyl]-1H-indazol-3-yl]-1H-pyrrole-2,5-dione]
4 | 0.411 | 0.011 | 0.058 | 0.306 | O=C1NC(=O)C(c2nn(CCCO)c3ccccc23)=C1c1cn(-c2cccnc2)c2ccccc12 [Compound 94, 3-[1-(3-hydroxypropyl)-1H-indazol-3-yl]-4-[1-(3-pyridinyl)-1H-indol-3-yl]-1H-pyrrole-2,5-dione]
5 | 0.018 | 0.009 | 0.82 | 0.098 | O=C1NC(=O)C(c2nn(CCCO)c3ccccc23)=C1c1cn(-c2cnc3ccccc3c2)c2ccccc12 [Compound 107, 3-[1-[3-hydroxypropyl]-1H-indazol-3-yl]-4-[1-(3-quinolinyl)-1H-indol-3-yl]-1H-pyrrole-2,5-dione]
6 | 0.038 | 0.004 | 0.155 | 0.047 | CN(CCO)CCCn1nc(C2=C(c3cn(-c4cccnc4)c4ccccc34)C(=O)NC2=O)c2ccccc21 [Compound 114, 3-[1-[3-[(2-hydroxyethyl)methylamino]propyl]-1H-indazol-3-yl]-4-[1-(3-pyridinyl)-1H-indol-3-yl]-1H-pyrrole-2,5-dione]
